Literature values, collected in patent US20040191214A1, “Nucleoside vaccine adjuvants” (priority 2001, published 2004).

Tested on: lymphocyte
Conditions: stated as known; see U.S. Pat. Nos. 6,130,326, 6,063,772, 5,767,097 to Tam

SMILES	stimulation of Type 1 or Type 2 (cytokine) response
N=C(N)c1ncn([C@@H]2O[C@H](CO)[C@@H](O)[C@H]2O)n1 [Viramidine, 1-beta-D-ribofuranosyl-1,2,4-triazole-3-carboxamidine]	stimulate a Type 1 response
Cl.N=C(N)c1cn([C@@H]2O[C@H](CO)[C@@H](O)[C@H]2O)c2nc[nH]c(=O)c12 [7-(β-D-ribofuranosyl)pyrrolo[2,3-d]4-pyrimidone-5-carboxamidine*HCl]	stimulate a Type 2 response
NC(=O)c1ncn([C@H]2O[C@@H](CO)[C@H](O)[C@@H]2O)n1 [Levovirin, 1-beta-L-ribofuranosyl-1,2,4-triazole-3-carboxamide]	stimulate a Type 1 response
NC(=O)c1ncn([C@@H]2O[C@H](CO)[C@@H](O)[C@H]2O)n1 [Ribavirin, 1-beta-D-ribofuranosyl-1,2,4-triazole-3-carboxamide]	stimulate a Type 1 response
